# From patent publication US20250186600A1, “EXCIPIENT COMPOUNDS FOR PROTEIN FORMULATIONS” (Comera Life Sciences, Inc., priority 2020, published 2025)
# Structures can show the parent of a compound that is named as a salt.
# Experiments:
# [1] = system: ustekinumab; experiment: Urea denaturation, Sypro orange fluorescence (Example 44); format: physicochemical; settings: excipient 5 mg/mL, ustekinumab 1 mg/mL, 6M urea, 20 mM histidine pH 6.0, Sypro orange fluorescence
# [2] = system: ustekinumab; experiment: Thermal stability at 65° C., monomer by SE-HPLC (Example 46); format: physicochemical; settings: excipient 5 mg/mL, ustekinumab 1 mg/mL, 20 mM histidine pH 6.0, incubated at 65° C.
# From the text: Therapeutic proteins are frequently subjected to fluctuations in temperatures which may lead to changes in tertiary and secondary structural elements. This can lead to aggregation of the protein and decrease the amount of active native protein. […] All excipients used in this Example, listed in Table 47 below, were of the highest purity, and were obtained from Sigma Aldrich (St. Louis, MO) or Cayman Chemical (Ann Arbor, MI).
# [3] = system: ustekinumab; experiment: Stabilization at low pH, Sypro orange fluorescence (Example 45); settings: excipient 5 mg/mL, ustekinumab 1 mg/mL, glycine acidification buffer pH 2.6, Sypro orange fluorescence
# [4] = system: omalizumab; experiment: Freeze-thaw stability, light scattering at 350 nm (Example 48); format: physicochemical; settings: excipient 5 mg/mL, omalizumab 5 mg/mL, 20 mM histidine pH 6.0, at least 5 freeze (−80° C.)/thaw cycles
# [5] = system: omalizumab; experiment: Mechanical shear stress (agitation 72 h), absorbance at 350 nm (Example 47); format: physicochemical; settings: excipient 0.5 mg/mL, omalizumab 2 mg/mL, 22° C., 72 h agitation at 300 rpm
# Method: Excipients that offer protection against shear stresses were identified by agitating therapeutic protein solutions in the presence of the test excipients (listed in Table 48 below) and observing any change in the number of aggregated particles. […] The samples were transferred to a 0.5 mL cryogenic vial (ThermoFisher, Waltham MA) and secured to an orbital shaker. They were then incubated at 22° C. for 72 h with agitation set at 300 rpm. At the end of incubation period, 100 μL of each sample was transferred to 96-well plates, and the absorbance was measured at 350 nm. Any increase in aggregation was measured by observing the changes in light scattering at 350 nm, and comparing those changes to the light scattering at 350 nm of a control formulation (prepared identically to the test samples but without the addition of the excipient). Excipients that are protective in nature were identified by their ability to slow the rate of aggregation and decrease the A350 absorbance value after the agitation step.
# [6] = system: ustekinumab; experiment: Thermal stability at 65 deg C., increase in percent monomer by SE-HPLC (Example 55); format: physicochemical; settings: excipient 5 mg/mL, ustekinumab 1 mg/mL, 20 mM Histidine pH 6.0, 65 deg C., 120 min
# From the text: Therapeutic proteins are frequently subjected to fluctuations in temperatures, which may lead to changes in their tertiary and secondary structural elements. This leads to aggregation of the protein and a decrease in the active native species.
# [7] = system: omalizumab; experiment: Freeze/thaw stress (6 cycles), monomer by SE-HPLC (Example 57); format: physicochemical; settings: excipient 100 mM, omalizumab 2 mg/mL, 20 mM Histidine pH 6.0, freeze (−80° C.)/thaw
# Method: Therapeutic proteins are frequently kept at low temperatures to improve their kinetic stability and minimize structural perturbations that could lead to the aggregation of the protein and a decrease in the active native species. In certain cases, this might be done by freezing the formulation until use. However, the low temperatures, concentration gradients, and ice formation during repeated freezing and thawing can stress the protein. […] The formulations were then aliquoted into 0.5 mL cryovials and frozen at −80° C. for 120 min. The samples were then thawed using a water bath kept at room temperature.
# [8] = system: ustekinumab; experiment: Accelerated aging at 40° C. for 4 weeks, monomer by SE-HPLC (Example 58); format: physicochemical; settings: excipient 100 mM, ustekinumab 2 mg/mL, 20 mM Histidine pH 6.0, 40° C. for 4 weeks
# Method: 1 mL of each sample was aliquoted into 2 mL glass vials (West Pharmaceutical services, PA) and incubated at 40° C. for 4 weeks. The aliquots were withdrawn after 0, 1, 2, 3, and 4 weeks.
# [9] = system: nivolumab; experiment: Thermal stability of nivolumab at 40 C for 4 weeks, SE-HPLC (Example 69); settings: Excipient added at 400 mM; nivolumab 10 mg/ml, 5 mM phosphate pH 7.5, 40 C for 4 weeks
# [10] = system: pembrolizumab; experiment: Thermal stability of pembrolizumab at 40 C for 4 weeks, SE-HPLC (Example 70); settings: Excipient added at 400 mM; pembrolizumab 10 mg/ml, 5 mM phosphate pH 7.5, 40 C for 4 weeks
# [11] = system: ustekinumab-FITC; experiment: Thermal stability of model ADC at 65° C. by SE-HPLC (Example 56); settings: excipient 5 mg/mL, ustekinumab-FITC 1 mg/mL, 20 mM Histidine pH 6.0, 65° C.
# [12] = Caffeine solubility testing with co-solutes at ambient temperature (Examples 31-32); settings: with co-solute
# Method: Prepared solutions were used either neat or diluted with deionized water.
# A small magnetic stir bar was added to the vial, and the solution was allowed to mix vigorously on a stir plate for about 10 minutes.
# [13] = system: infliximab; experiment: Thermal stability at 50° C. with caffeine and excipients, SE-HPLC (Example 63); format: physicochemical; settings: excipient 0.5 M, caffeine 50 mM, infliximab 10 mg/mL, 5 mM phosphate pH 7.5, 50° C., 180 min
# Method: Therapeutic proteins stress leads to aggregation of the protein and a decrease in the active native species. […] The aliquots were withdrawn at 0 min, 90 min and 180 min. […] Diode array detector.
# [14] = system: bovine gamma globulin (BGG); experiment: Normalized viscosity of BGG with caffeine and a secondary excipient (Example 40); format: physicochemical; settings: Excipient A caffeine 15 mg/mL + Excipient B 14 mg/mL; BGG about 280 mg/mL, 20 mM histidine pH 6, 25° C.
# [15] = Table 13; versus 79.7 cP with no excipient
# [16] = system: ustekinumab-FITC; experiment: Mechanical shear stability of ustekinumab-FITC, particle radius by DLS (Example 60); settings: ustekinumab-FITC 1 mg/mL, 20 mM histidine pH 6, 300 rpm 72 h 23° C.
# [17] = system: infliximab; experiment: Thermal degradation assay at 55° C., normalized monomer loss rate by HP-SEC (Example 51); format: physicochemical; settings: infliximab about 2 mg/mL, 20 mM phosphate pH 7, 55° C.
# Method: ® infliximab was obtained from the Clinigen Group and reconstituted according to the instructions in the Janssen package insert, resulting in a 10 mg/mL infliximab solution in 5 mM phosphate buffer, pH about 7, with 50 mg/mL sucrose and 0.05 mg/mL polysorbate 80. The reconstituted drug product was then combined 1:1 by volume with 50 mM sodium acetate buffer at pH 5. The resulting solution was then injected onto a small preparative scale cation exchange column (GE Healthcare, Chicago, IL). After the infliximab was loaded onto the column, the column was washed with 10 column volumes of 50 mM sodium acetate buffer, pH 5. The infliximab was then eluted from the column with five column volumes of a 250 mM sodium chloride, 50 mM sodium acetate buffer at pH 5. […] Stock solutions of either 4 or 8 mg/mL infliximab in 20 mM phosphate buffer at pH 7 were then used in subsequent tests.
# All excipients used in this Example, listed in Table 52 below, were of the highest purity, and were obtained from Sigma Aldrich (St. Louis, MO) or Cayman Chemical (Ann Arbor, MI). The stock infliximab solutions were mixed with stock excipient solutions containing the excipients listed in Table 52 formulated in 20 mM phosphate buffer, pH 7 to achieve a final infliximab concentration of about 2 mg/mL in each sample. The samples containing the infliximab solutions and the stock excipient solutions were then aliquoted into five 100 μL aliquots in PCR tubes. […] These stressed samples were then analyzed for monomer content by high performance size exclusion chromatography (HP-SEC) using an Agilent 1100 series HPLC equipped with a diode array detector monitoring absorbance at 280 nm. […] For each sample, the monomer peak area was divided by the monomer peak area obtained from an identical but unstressed sample to obtain the percent monomer remaining after exposure to thermal stress. The remaining monomer as a percentage of the unstressed sample was then plotted as a function of incubation time and the absolute value of the slope of a linear fit to the data was recorded as the monomer loss rate.
compound,measurement,setting,value
Nc1ncnc2c1ncn2[C@@H]1O[C@H](CO)[C@@H](O)[C@H]1O [Adenosine],% increased stability,[1],53.6%
same,Monomer Fraction % change from control,[2],8.4%
same,% change in stability,[3],32.2%
OC[C@@H](O)C(O)[C@H](O)CO [Arabitol],% increased stability,[1],2.7%
same,Monomer Fraction % change from control,[2],6.0%
same,% reduction in light scattering at 350 nm vs. control,[4],17.8%
same,% change in stability,[3],3.4%
C[C@]1(OC(=O)/C=C/c2ccccc2)C[C@@H](O)[C@]2(O)C=CO[C@@H](O[C@@H]3O[C@H](CO)[C@@H](O)[C@H](O)[C@H]3O)[C@@H]21 [Harpagoside],% decrease of A350 signal vs. control,[5],69.0%
OC[C@H]1O[C@@](CO)(OC[C@@]2(O[C@H]3O[C@H](CO)[C@@H](O)[C@H](O)[C@H]3O)O[C@H](CO)[C@@H](O)[C@@H]2O)[C@@H](O)[C@@H]1O [Kestose],% increase in monomer content vs. control,[6],5.9%
same,% increase in monomer content vs. control,[7],71.18%
same,% increase in monomer content vs. control,[8],8.4%
same,% Monomer remaining,[9],92.4%
same,% Monomer remaining,[10],82.6%
O=C[C@@H](O)[C@H](O)[C@H](O)[C@H](O)CO [Altrose],% increase in monomer content vs. control,[6],2.8%
same,% increase in monomer content vs. control,[11],63.41%
O=C(CO)[C@@H](O[C@H]1O[C@H](CO)[C@@H](O)[C@H](O)[C@H]1O)[C@H](O)[C@H](O)CO [Turanose],% increase in monomer content vs. control,[6],5.8%
same,% increase in monomer content vs. control,[7],75.99%
same,% increase in monomer content vs. control,[8],8.3%
same,% increase in monomer content vs. control,[11],48.06%
"O=C1NS(=O)(=O)c2ccccc21.[Na] [Saccharin, Na, saccharin sodium salt]",dissolution of caffeine relative to the reported caffeine solubility limit,[12],at least about four times
Cl.NCCc1ccc(O)cc1 [Tyramine HCl],dissolution of caffeine relative to the reported caffeine solubility limit,[12],at least about four times
OC[C@H]1O[C@@](CO)(O[C@H]2O[C@H](CO)[C@@H](O)[C@H](O)[C@H]2O)[C@@H](O[C@H]2O[C@H](CO)[C@@H](O)[C@H](O)[C@H]2O)[C@@H]1O [Melzitose],% increased stability,[1],4.7%
same,Monomer Fraction % change from control,[2],2.0%
same,% change in stability,[3],2.0%
O=C(O)[C@H](O)[C@@H](O)[C@H](O[C@@H]1O[C@H](CO)[C@H](O)[C@H](O)[C@H]1O)[C@H](O)CO [Lactobionic acid],% change compared to control,[13],20.8%
same,% Monomer remaining,[9],89.8%
same,% Monomer remaining,[10],82.1%
CO[C@H]1[C@H](O)[C@@H](O)[C@@H](O)[C@H](O)[C@@H]1O [Pinitol],% change compared to control,[13],13.1%
same,% Monomer remaining,[9],85.6%
same,% Monomer remaining,[10],79.2%
O=C1O[C@@H]([C@H](O)CO)[C@@H](O)[C@H]1O [Gulonolactone],% increase in monomer content vs. control,[6],2.6%
same,% increase in monomer content vs. control,[7],10.02%
same,% increase in monomer content vs. control,[11],79.95%
O=S(=O)([O-])[O-].[Na+].[Na+] [Sodium sulfate],Normalized Viscosity,[14],0.78
same,Viscosity Reduction (%),[15],5.8%
O=C(O)CC(O)(CC(=O)O)C(=O)O,Viscosity Reduction (%),[15],6.0%
CC(=O)N[C@@H]1C(O)O[C@H](CO)[C@@H](O)[C@@H]1O (stereo partly drawn) [N-Acetyl Mannosamine],% increase in monomer content vs. control,[6],3.1%
same,% increase in monomer content vs. control,[8],4.4%
same,% increase in monomer content vs. control,[11],23.49%
Madecassoside,% decrease of A350 signal vs. control,[5],73.2%
same,DLS particle radius (nm) after shear test,[16]; excipient 5 mg/mL,6.4 nm
O=C(CO)[C@@H](O)[C@H](O)[C@H](O)[C@H](O)CO [Sedoheptulose],% increased stability,[1],3.7%
same,Monomer Fraction % change from control,[2],3.4%
same,% increase in monomer content vs. control,[6],4.1%
same,% increase in monomer content vs. control,[7],11.35%
same,% increase in monomer content vs. control,[8],7.7%
same,% change in stability,[3],2.6%
same,% increase in monomer content vs. control,[11],37.68%
OC[C@H]1O[C@H](O[C@H]2O[C@H](CO)[C@@H](O)[C@H](O)[C@H]2O)[C@H](O)[C@@H](O)[C@@H]1O [trehalose],Monomer loss rate,[17]; excipient 200 mM,0.0737 % mon/min
same,Normalized monomer loss rate,[17]; excipient 200 mM,0.460
same,Monomer loss rate,[17]; excipient 250 mM,0.0781 % mon/min
same,Normalized monomer loss rate,[17]; excipient 250 mM,0.488
same,% increase in monomer content vs. control,[7],77.68%
same,% change in stability,[3],2.5%
Rebaudioside A,% decrease of A350 signal vs. control,[5],73.2%
same,DLS particle radius (nm) after shear test,[16]; excipient 5 mg/mL,5.8 nm
"CCN(CC)CCOC(=O)c1ccc(N)cc1 [Procaine HCl, reference compound]",dissolution of caffeine relative to the reported caffeine solubility limit,[12],at least about four times
C[C@H](CC[C@@H](O[C@@H]1O[C@H](CO[C@@H]2O[C@H](CO)[C@@H](O)[C@H](O)[C@H]2O)[C@@H](O)[C@H](O)[C@H]1O[C@@H]1O[C@H](CO)[C@@H](O)[C@H](O)[C@H]1O)C(C)(C)O)[C@H]1CC[C@@]2(C)[C@@H]3CC=C4[C@@H](CC[C@H](O[C@@H]5O[C@H](CO[C@@H]6O[C@H](CO)[C@@H](O)[C@H](O)[C@H]6O)[C@@H](O)[C@H](O)[C@H]5O)C4(C)C)[C@]3(C)[C@H](O)C[C@]12C [Mogroside V],% decrease of A350 signal vs. control,[5],68.2%
"O=P([O-])([O-])[O-].[K+].[K+].[K+] [Potassium phosphate, potassium phosphate tribasic]",Viscosity Reduction (%),[15],9.3%
C=C1C[C@@]23CC[C@H]4[C@@](C)(CCC[C@@]4(C)C(=O)O[C@@H]4O[C@H](CO)[C@@H](O)[C@H](O)[C@H]4O)[C@@H]2CC[C@]1(O[C@@H]1O[C@H](CO)[C@@H](O)[C@H](O)[C@H]1O)C3 [Rubusoside],DLS particle radius (nm) after shear test,[16]; excipient 8.3 mg/mL,6.2 nm
